Test results from patent publication US11477952B2, “Endophytic microbial seed treatment formulations and methods related thereto for improved plant performance” (ADVANCED BIOLOGICAL MARKETING, INC., priority 2017, dated 2022).

Tested on: seedlings
Experiment: Preliminary and greenhouse tests of 1-octen-3-ol on plant growth
Format: in vivo
Text: These endophytic microorganisms frequently are fully symbiotic with plants (Harman, Howell, et al., 2004). These endophytic symbionts have abilities to induce multiple beneficial effects in plants, including induced resistance to diseases and potentially other pests; resistance to abiotic stresses such as drought, salt and flooding; improved efficiency of uses of nitrogen and other plant nutrients; enhancement of seed germination and seedling vigor; and enhanced plant growth and development. There are numerous diverse genera of microbes that induce at least most of these changes in plant performance, including mycorrhizae, plant growth promoting rhizobacteria, and Basidomycetous fungi in the Sebaciles such as Piriformaspora indica. These organisms have an endophytic versus a plant pathogenic life style (Shoresh, Mastouri, et al., 2010) typical of numerous other plant-associated microorganisms. The systemic changes in plant gene expression are presumed to be induced by the production of specific triggering metabolites from these different organisms. […]
Unexpected is the effect of the OMEGA biorational seed treatments that contain the fungal metabolite 1-octen-3-ol, yeast extract and humic acid (Leonardite shale). […] Thus the quantities applied are very small and cannot grow or proliferate on or in plants so their effects were expected to be transitory. […]

SMILES: C=CC(O)CCCCC (centres unmarked) [1-octen-3-ol]
- seedling growth (greenhouse, 200 to 20,000 pL in different formulations, data not shown): plant growth promotive effects on seedling growth
- plant growth (very low concentrations, preliminary work): strongly enhances plant growth
